Legend:
JAK2 = target: T1, JAK2 (Homo sapiens, UniProt O60674); assay: Jak Biochemical HTRF Assay (JAK2); details: recombinant purified GST-tagged catalytic domain, [ATP] 8.5 μM, values given as range classes
T1 construct: recombinant purified GST-tagged catalytic domain for each enzyme; purchased Invitrogen M4290
Experimental: (§1) Jak Biochemical HTRF Assay Protocol
(§2) The ability of compounds to inhibit the activity of JAK1, JAK2, JAK3, and Tyk2 was measured using a recombinant purified GST-tagged catalytic domain for each enzyme (Invitrogen JAK1 #M4290, JAK2 #M4290, JAK3 #M4290, Tyk2 #M4290) in an HTRF format biochemical assay. The reactions employed a common peptide substrate, LCB-EQEDEPEGDYFEWLW-NH2 (in-house). The basic assay protocol is as follows: First, 250 nL of diluted compounds in DMSO were dispensed into the wells of a dry 384-well Black plate (Greiner #781076) using a Labcyte Echo 555 acoustic dispenser. Subsequent reagent additions employed an Agilent Bravo. Next, 18 μL of 1.11× enzyme and 1.11× substrate in 1× assay buffer (Invitrogen kinase buffer #PV3189, 2 mM DTT, 0.05% BSA) were added to the wells and shaken and then preincubated for 30 minutes at room temperature to allow compound binding to equilibrate. After equilibration, 2 μL of 10×ATP in 1× assay buffer was added to initiate the kinase reaction and the plates were shaken and then incubated at room temperature for 120 minutes. At the end of the incubation, 20 μL of 2× stop buffer (streptavidin-Dylight 650 (Thermo #84547B/100 mL), Eu-tagged pY20 antibody (Perkin Elmer #AD0067), EDTA, HEPES, and Triton) was added to quench the reaction. Plates were shaken and centrifuged and then incubated 60 minutes at room temperature and then read on a Perkin Elmer Envision (λex=337 nm, λem=665 and 615 nm, TRF delay time=20 μs). HTRF signal=10,000*665 nm reading/615 nm reading. After normalization to untreated controls, the percent inhibition of the HTRF signal at each compound concentration was calculated. The plot of percent inhibition versus the log of compound concentration was fit with a 4-parameter dose response equation to calculate IC50 values.
(§3) Final reaction conditions were:
(§4) Examples of the instant invention were evaluated in JAK2 and JAK3 in vitro binding assays. Table 13 tabulates the biological data disclosed for the instant invention as a range of JAK2 and JAK3 IC50 values (A: IC50≦10 nM; B: 10 nM>IC50≦500 nM C: IC50>500 nM).

JAK3 = target: T2, JAK3 (Homo sapiens, UniProt P52333); assay: Jak Biochemical HTRF Assay (JAK3); details: recombinant purified GST-tagged catalytic domain, [ATP] 2.9 μM, values given as range classes
T2 construct: recombinant purified GST-tagged catalytic domain for each enzyme; purchased Invitrogen M4290
T2 sequence (P52333 822-1111 limits assumed): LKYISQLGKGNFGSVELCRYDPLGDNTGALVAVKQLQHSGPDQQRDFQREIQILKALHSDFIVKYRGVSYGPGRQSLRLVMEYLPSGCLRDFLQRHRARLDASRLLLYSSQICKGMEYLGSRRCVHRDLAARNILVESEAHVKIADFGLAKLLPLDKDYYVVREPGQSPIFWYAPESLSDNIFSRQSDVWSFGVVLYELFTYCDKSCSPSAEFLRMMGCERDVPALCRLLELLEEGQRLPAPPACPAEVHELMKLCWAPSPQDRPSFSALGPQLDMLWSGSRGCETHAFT
Experimental: as §1, §2, §3, §4

T1 sequence (O60674 849-1124 limits assumed): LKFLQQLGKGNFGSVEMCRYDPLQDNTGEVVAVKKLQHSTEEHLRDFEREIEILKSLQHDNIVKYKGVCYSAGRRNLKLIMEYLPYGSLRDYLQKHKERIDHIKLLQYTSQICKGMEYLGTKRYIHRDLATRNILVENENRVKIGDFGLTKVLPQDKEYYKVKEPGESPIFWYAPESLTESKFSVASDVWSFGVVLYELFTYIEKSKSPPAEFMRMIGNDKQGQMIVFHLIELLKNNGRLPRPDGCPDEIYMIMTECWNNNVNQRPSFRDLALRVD

SMILES	IC50 (JAK2)	IC50 (JAK3)
COc1cnc2[nH]cc(-c3cncc(N[C@@H](C(=O)NCC(F)(F)F)C(C)(C)O)c3)c2c1 [Example 1-50, 3-hydroxy-N~2~-[5-(5-methoxy-1H-pyrrolo[2,3-b]pyridin-3-yl)pyridin-3-yl]-N-(2,2,2-trifluoroethyl)-D-valinamide]	10 to 500 nM	≤ 10 nM
CC(C)[C@@H](Nc1cncc(-c2c[nH]c3ncc(Cl)cc23)c1)C(=O)NCC(F)(F)F [Example 1-51, N~2~-[5-(5-chloro-1H-pyrrolo[2,3-b]pyridin-3-yl)pyridin-3-yl]-N-(2,2,2-trifluoroethyl)-D-valinamide]	≤ 10 nM	≤ 10 nM
CC(C)[C@H](Nc1cncc(-c2c[nH]c3ncc(Cl)cc23)c1)C(=O)NCC(F)(F)F [Example 1-52, N-18 2~-[5-(5-chloro-1H-pyrrolo[2,3-b]pyridin-3-yl)pyridin-3-yl]-N-(2,2,2-trifluoroethyl)-L-valinamide]	10 to 500 nM	≤ 10 nM
CC(C)C(Nc1cncc(-c2c[nH]c3ncc(O)cc23)c1)C(=O)NCC(F)(F)F (stereo not drawn) [Example 2-1, 2-{[5-(5-hydroxy-1H-pyrrolo[2,3-b]pyridin-3-yl)pyridin-3-yl]amino}-3-methyl-N-(2,2,2-trifluoroethyl)butanamide]	10 to 500 nM	≤ 10 nM
COCCOc1cnc2[nH]cc(-c3cncc(NC(C(=O)NCC(F)(F)F)C(C)C)c3)c2c1 (stereo not drawn) [Example 2-2]	10 to 500 nM	≤ 10 nM
CC(C)Oc1cnc2[nH]cc(-c3cncc(N[C@@H](C(=O)NCC(F)(F)F)C(C)C)c3)c2c1 [Example 2-3, N~2~-{5-[5-(1-methylethoxy)-1H-pyrrolo[2,3-b]pyridin-3-yl]pyridin-3-yl}-N-(2,2,2-trifluoroethyl)-D-valinamide]	10 to 500 nM	≤ 10 nM
CC(C)[C@H](Nc1cncc(-c2c[nH]c3ncc(OCc4ccccc4)cc23)c1)C(=O)NCC(F)(F)F [Example 2-4, N~2~-{5-[5-(benzyloxy)-1H-pyrrolo[2,3-b]pyridin-3-yl]pyridin-3-yl}-N-(2,2,2-trifluoroethyl)valinamide]	10 to 500 nM	≤ 10 nM
CC(C)[C@H](Nc1cncc(-c2c[nH]c3ncc(OC4CCCC4)cc23)c1)C(=O)NCC(F)(F)F [Example 2-5, N~2~-{5-[5-(cyclopentyloxy)-1H-pyrrolo[2,3-b]pyridin-3-yl]pyridin-3-yl}-N-(2,2,2-trifluoroethyl)valinamide]	10 to 500 nM	≤ 10 nM
CC(C)[C@H](Nc1cncc(-c2c[nH]c3ncc(OCC4CC4)cc23)c1)C(=O)NCC(F)(F)F [Example 2-6, N~2~-{5-[5-(cyclopropylmethoxy)-1H-pyrrolo[2,3-b]pyridin-3-yl]pyridin-3-yl}-N-(2,2,2-trifluoroethyl)valinamide]	10 to 500 nM	≤ 10 nM
CC(C)[C@H](Nc1cncc(-c2c[nH]c3ncc(OCCc4ccccc4)cc23)c1)C(=O)NCC(F)(F)F [Example 2-7, N~2~-{5-[5-(2-phenylethoxy)-1H-pyrrolo[2,3-b]pyridin-3-yl]pyridin-3-yl}-N-(2,2,2-trifluoroethyl)valinamide]	10 to 500 nM	≤ 10 nM
CC(C)[C@H](Nc1cncc(-c2c[nH]c3ncc(OC4Cc5ccccc5C4)cc23)c1)C(=O)NCC(F)(F)F [Example 2-8, N~2~-{5-[5-(2,3-dihydro-1H-inden-2-yloxy)-1H-pyrrolo[2,3-b]pyridin-3-yl]pyridin-3-yl}-N-(2,2,2-trifluoroethyl)valinamide]	10 to 500 nM	≤ 10 nM
CC(C)[C@H](Nc1cncc(-c2c[nH]c3ncc(OC4CCOCC4)cc23)c1)C(=O)NCC(F)(F)F [Example 2-9, N~2~-{5-[5-(tetrahydro-2H-pyran-4-yloxy)-1H-pyrrolo[2,3-b]pyridin-3-yl]pyridin-3-yl}-N-(2,2,2-trifluoroethyl)valinamide]	10 to 500 nM	≤ 10 nM
CC(C)[C@H](Nc1cncc(-c2c[nH]c3ncc(OCCN4CCCC4=O)cc23)c1)C(=O)NCC(F)(F)F [Example 2-10, N~2~-(5-{5-[2-(2-oxopyrrolidin-1-yl)ethoxy]-1H-pyrrolo[2,3-b]pyridin-3-yl}pyridin-3-yl)-N-(2,2,2-trifluoroethyl)valinamide]	10 to 500 nM	≤ 10 nM
CC(C)[C@H](Nc1cncc(-c2c[nH]c3ncc(OCc4cccnc4)cc23)c1)C(=O)NCC(F)(F)F [Example 2-11, N~2~-{5-[5-(pyridin-3-ylmethoxy)-1H-pyrrolo[2,3-b]pyridin-3-yl]pyridin-3-yl}-N-(2,2,2-trifluoroethyl)valinamide]	10 to 500 nM	≤ 10 nM
CC(C)[C@H](Nc1cncc(-c2c[nH]c3ncc(OCCc4ccccn4)cc23)c1)C(=O)NCC(F)(F)F [Example 2-12, N~2~-{5-[5-(2-pyridin-2-ylethoxy)-1H-pyrrolo[2,3-b]pyridin-3-yl]pyridin-3-yl}-N-(2,2,2-trifluoroethyl)valinamide]	10 to 500 nM	≤ 10 nM
CC(C)[C@H](Nc1cncc(-c2c[nH]c3ncc(OCCN(C)C)cc23)c1)C(=O)NCC(F)(F)F [Example 2-13, N~2~-(5-{5-[2-(dimethylamino)ethoxy]-1H-pyrrolo[2,3-b]pyridin-3-yl}pyridin-3-yl)-N-(2,2,2-trifluoroethyl)valinamide]	> 500 nM	10 to 500 nM
CC(C)[C@H](Nc1cncc(-c2c[nH]c3ncc(OCCCN(C)C)cc23)c1)C(=O)NCC(F)(F)F [Example 2-14, N~2~-(5-{5-[3-(dimethylamino)propoxy]-1H-pyrrolo[2,3-b]pyridin-3-yl}pyridin-3-yl)-N-(2,2,2-trifluoroethyl)valinamide]	10 to 500 nM	≤ 10 nM
CC(C)[C@H](Nc1cncc(-c2c[nH]c3ncc(OCCN4CCOCC4)cc23)c1)C(=O)NCC(F)(F)F [Example 2-15, N~2~-{5-[5-(2-morpholin-4-ylethoxy)-1H-pyrrolo[2,3-b]pyridin-3-yl]pyridin-3-yl}-N-(2,2,2-trifluoroethyl)valinamide]	10 to 500 nM	≤ 10 nM
CC(C)C(Nc1cncc(-c2c[nH]c3ncc(OC4CCN(C)CC4)cc23)c1)C(=O)NCC(F)(F)F (stereo not drawn) [Example 2-16, N~2~-(5-{5-[(1-methylpiperidin-4-yl)oxy]-1H-pyrrolo[2,3-b]pridin-3-yl}pyridin-3-yl)-N-(2,2,2-trifluoroethyl)valinamide]	10 to 500 nM	≤ 10 nM
CC(C)[C@H](Nc1cncc(-c2c[nH]c3ncc(OCCN4CCN(C)CC4)cc23)c1)C(=O)NCC(F)(F)F [Example 2-17, N~2~-(5-{5-[2-(4-methylpiperazin-1-yl)ethoxy]-1H-pyrrolo[2,3-b]pyridin-3-yl}pyridin-3-yl)-N-(2,2,2-trifluoroethyl)valinamide]	10 to 500 nM	≤ 10 nM
CC(C)C(Nc1cncc(-c2c[nH]c3ncc(OCC4CCN(C)CC4)cc23)c1)C(=O)NCC(F)(F)F (stereo not drawn) [Example 2-18, N~2~-(5-{5-[(1-methylpiperidin-4-yl)methoxy]-1H-pyrrolo[2,3-b]ppidin-3-yl}pyridin-3-yl)-N-(2,2,2-trifluoroethyl)valinamide]	10 to 500 nM	≤ 10 nM
CC(C)[C@@H](Nc1cncc(-c2c[nH]c3ncc(C(=O)N(C)C)cc23)c1)C(=O)NCC(F)(F)F [Example 3-1, (R)—N,N-dimethyl-3-(5-(3-methyl-1-oxo-1-(2,2,2-trifluoroethylamino)butan-2-ylamino)pyridin-3-yl)-1H-pyrrolo[2,3-b]pyridine-5-carboxamide]	> 500 nM	10 to 500 nM
CC(C)NC(=O)c1cnc2[nH]cc(-c3cncc(N[C@@H](C(=O)NCC(F)(F)F)C(C)C)c3)c2c1 [Example 3-2, N-(1-methylethyl)-3-[5-({(1R)-2-methyl-1-[(2,2,2-trifluoroethyl)carbamoyl]propyl}amino)pyridin-3-yl]-1H-pyrrolo[2,3-b]pyridine-5-carboxamide]	≤ 10 nM	≤ 10 nM
COCC(C)NC(=O)c1cnc2[nH]cc(-c3cncc(N[C@@H](C(=O)NCC(F)(F)F)C(C)C)c3)c2c1 (stereo partly drawn) [Example 3-3, N-(2-methoxy-1-methylethyl)-3-[5-({(1R)-2-methyl-1-[(2,2,2-trifluoroethyl)carbamoyl]propyl}amino)pyridin-3-yl]-1H-pyrrolo[2,3-b]pyridine-5-carboxamide]	10 to 500 nM	≤ 10 nM
